Literature values as cited in patent US20220257541A1, “Lacosamide for the Treatment of ADD/ADHD” (priority 2019, published 2022).

Legend:
[1] = test system: voltage-gated sodium channels; conditions: cited from earlier work
[2] = test system: children who take methylphenidate; conditions: cited from earlier work

**Q.** With `NC(=O)c1cn(Cc2c(F)cccc2F)nn1` [rufinamide, 1-[(2,6-difluorophenyl)methyl]-1H-1,2,3-triazole-4 carboxamide] as the molecule, how does the mechanism of action [1] read?
**A.** act through voltage-gated sodium channels

**Q.** With `COC(=O)C(c1ccccc1)C1CCCCN1` (centres unmarked) [methylphenidate] as the molecule, how does the “proportion of children who develop symptoms of obsessive-compulsive behaviour” value [2] read?
**A.** one third
